One experiment concerns P388 leukemia. Kind of experiment: NCI tumour cell line growth inhibition, 48 h.
For the next experiment, the system named is SN12K1 renal. Briefly: NCI tumour cell line growth inhibition, 48 h.

Where “and” joins values, the source holds several entries; their conditions need not be identical. Equal values may be shown once.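 Exposure lasted 48 hours, with cells grown in 96-well plates and compounds tested at five concentrations. The concentration for 50% growth inhibition is given as GI50. At the TGI there is no net growth.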

Consider `COc1ccc2[nH]c3c(C)c4cc[n+](C)cc4c(C)c3c2c1`, for which, in the experiment on P388 leukemia, the GI50 was 1.78 µM; the TGI is 19.1 µM and 10.8 µM and 16.5 µM. Further, in the experiment on SN12K1 renal, the GI50 is 0.146 µM; the TGI is 2.96 µM and 2.75 µM and 1.85 µM.

Turning to `S=c1nc[nH]c2nc[nH]c12`, the values for the TGI with P388 leukemia and in the experiment on SN12K1 renal were 242 µM and 527 µM, respectively.

For the molecule `COC1=C(C)C(=O)C2=C(C1=O)C(CO)N1C(C#N)C3CC4C(C1C2N1CCOC41)N3C` (configuration not stated), the TGI with SN12K1 renal was found to be 17.4 µM.

For the origin of these results see PubChem BioAssay (NCI).
